# Measured values published in PubChem BioAssay (NCI).
#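 Cells were grown in 96-well plates and exposed to each compound for 48 hours at five concentrations; endpoints were interpolated linearly between bracketing concentrations, or set to the highest concentration if not reached. GI50 marks 50% less growth. TGI: concentration producing complete growth inhibition.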
# Legend:
# Test in all cases: growth of human tumour cells (NCI), 48 h
# UO-31 renal = tested on: UO-31 renal
# SN12C renal = tested on: SN12C renal
# SK-OV-3 ovarian = tested on: SK-OV-3 ovarian
# CAKI-1 renal = tested on: CAKI-1 renal
# T-47D breast = tested on: T-47D breast
# SK-MEL-28 melanoma = tested on: SK-MEL-28 melanoma
# NCI-H226 lung = tested on: NCI-H226 lung
# UACC-62 melanoma = tested on: UACC-62 melanoma
# HOP-62 NSCLC = tested on: HOP-62 NSCLC
# SF-268 CNS = tested on: SF-268 CNS
# HCC-2998 colon = tested on: HCC-2998 colon
# TK-10 renal = tested on: TK-10 renal
# RXF 393 renal = tested on: RXF 393 renal
# SNB-75 CNS = tested on: SNB-75 CNS
# U251 CNS = tested on: U251 CNS
# 786-0 renal = tested on: 786-0 renal
# MCF7 breast = tested on: MCF7 breast
# NCI-H460 lung = tested on: NCI-H460 lung
# MDA-MB-231 breast = tested on: MDA-MB-231 breast
# SF-295 CNS = tested on: SF-295 CNS
# A549 NSCLC = tested on: A549 NSCLC
# ACHN renal = tested on: ACHN renal
# PC-3 prostate = tested on: PC-3 prostate
# SNB-19 CNS = tested on: SNB-19 CNS
# BT-549 breast = tested on: BT-549 breast
# UACC-257 melanoma = tested on: UACC-257 melanoma
# DU-145 prostate = tested on: DU-145 prostate
# CCRF-CEM leukemia = tested on: CCRF-CEM leukemia
# SK-MEL-2 melanoma = tested on: SK-MEL-2 melanoma
# SF-539 CNS = tested on: SF-539 CNS
# SK-MEL-5 melanoma = tested on: SK-MEL-5 melanoma
# KM12 colon = tested on: KM12 colon
# HS 578T breast = tested on: HS 578T breast
# OVCAR-5 ovarian = tested on: OVCAR-5 ovarian
# MDA-MB-435 = tested on: MDA-MB-435
structure (smiles),measurement,setting,value
CC(=O)OC[C@H]1OC(O)C=C[C@@H]1OC(C)=O (stereo not given in full),GI50,UO-31 renal,89.5 µM
same,TGI,UO-31 renal,168 µM
same,GI50,SN12C renal,88 µM
same,TGI,SN12C renal,168 µM
same,GI50,SK-OV-3 ovarian,145 µM
same,TGI,SK-OV-3 ovarian,407 µM
same,GI50,CAKI-1 renal,91.1 µM
same,TGI,CAKI-1 renal,170 µM
same,GI50,T-47D breast,33.3 µM
same,TGI,T-47D breast,161 µM
same,GI50,SK-MEL-28 melanoma,80.4 µM
same,TGI,SK-MEL-28 melanoma,153 µM
same,GI50,NCI-H226 lung,119 µM
same,TGI,NCI-H226 lung,267 µM
same,GI50,UACC-62 melanoma,92 µM
same,TGI,UACC-62 melanoma,176 µM
same,GI50,HOP-62 NSCLC,110 µM
same,TGI,HOP-62 NSCLC,227 µM
same,GI50,SF-268 CNS,109 µM
same,TGI,SF-268 CNS,236 µM
same,GI50,HCC-2998 colon,91.7 µM
same,TGI,HCC-2998 colon,171 µM
same,GI50,TK-10 renal,98.1 µM
same,TGI,TK-10 renal,179 µM
same,GI50,RXF 393 renal,96.8 µM
same,TGI,RXF 393 renal,195 µM
same,GI50,SNB-75 CNS,86.3 µM
same,TGI,SNB-75 CNS,159 µM
same,GI50,U251 CNS,95.1 µM
same,TGI,U251 CNS,187 µM
same,GI50,786-0 renal,94.1 µM
same,TGI,786-0 renal,178 µM
same,GI50,MCF7 breast,23.5 µM
same,TGI,MCF7 breast,123 µM
same,GI50,NCI-H460 lung,155 µM
same,TGI,NCI-H460 lung,488 µM
same,GI50,MDA-MB-231 breast,87.7 µM
same,TGI,MDA-MB-231 breast,183 µM
same,GI50,SF-295 CNS,102 µM
same,TGI,SF-295 CNS,198 µM
same,GI50,A549 NSCLC,767 µM
same,TGI,A549 NSCLC,2.49 mM
same,GI50,ACHN renal,81.5 µM
same,TGI,ACHN renal,151 µM
same,GI50,PC-3 prostate,89.5 µM
same,TGI,PC-3 prostate,170 µM
same,GI50,SNB-19 CNS,91.1 µM
same,TGI,SNB-19 CNS,170 µM
same,GI50,BT-549 breast,89.2 µM
same,TGI,BT-549 breast,162 µM
same,GI50,UACC-257 melanoma,87.1 µM
same,TGI,UACC-257 melanoma,183 µM
same,GI50,DU-145 prostate,71.6 µM
same,TGI,DU-145 prostate,143 µM
same,GI50,CCRF-CEM leukemia,17.7 µM
same,TGI,CCRF-CEM leukemia,89.8 µM
same,GI50,SK-MEL-2 melanoma,91.3 µM
same,TGI,SK-MEL-2 melanoma,177 µM
same,GI50,SF-539 CNS,77.8 µM
same,TGI,SF-539 CNS,155 µM
same,GI50,SK-MEL-5 melanoma,89 µM
same,TGI,SK-MEL-5 melanoma,161 µM
same,GI50,KM12 colon,93.9 µM
same,TGI,KM12 colon,177 µM
same,GI50,HS 578T breast,107 µM
same,TGI,HS 578T breast,263 µM
same,GI50,OVCAR-5 ovarian,95 µM
same,TGI,OVCAR-5 ovarian,169 µM
same,GI50,MDA-MB-435,82.4 µM
same,TGI,MDA-MB-435,155 µM
